According to patent US8785452B2, “Anti-infective compounds” (priority 2008, dated 2014):
Where two headings read alike, the source gives them in different places.

Columns and labels:
[1] = system: M. tuberculosis H37Rv-GFP; test: microbe, parasite or virus in culture; assay type: cell-based, Mycobacterium tuberculosis; settings: Mycobacterium tuberculosis, H37RV, Macrophage; for inhibition at 0.2 µM: read-out: QIM Confirm % Inhibition 0.2 uM; for inhibition at 2 µM: read-out: QIM Confirm % Inhibition 2 uM
Raw264.7 cells [2] = settings: mouse, 5 days; for Primary QIM CellNb: 20 μM
Raw264.7 cells [3] = test: Cell number (CellNb) from image analysis of the phenotypic cell-based assay
[4] = system: M. tuberculosis H37Rv-GFP; test: microbe, parasite or virus in culture; assay type: cell-based; settings: Mycobacterium tuberculosis; for inhibition at 0.2 µM: read-out: QUM Confirm % Inhibition 0.2 uM; for inhibition at 2 µM: read-out: QUM Confirm % Inhibition 2 uM; for inhibition at 20 µM: read-out: QUM Confirm % Inhibition 20 uM
[5] = confirmation, 20 uM, read-out: QIM Confirm % Inhibition 20 uM
[6] = primary screen, 20 μM, read-out: Primary QIM % Inhibition
[7] = confirmation, 20 uM, intracellular, read-out: QIM Confirm % Inhibition 20 uM
[8] = primary screen, 20 μM, intracellular, read-out: Primary QIM % Inhibition
[9] = confirmation, 0.2 uM, intracellular
[10] = confirmation, 2 uM, intracellular

SMILES | inhibition at 20 µM [1, 5] [%] | inhibition at 20 µM [1, 6] [%] | Primary QIM CellNb (Raw264.7 cells [2]) | Primary QIM CellNb (Raw264.7 cells [3]; primary screen, 20 μM) | also measured
COc1cccc(/C=N/NC(=O)c2ccncc2)c1OC [IPK 000 043 02] | 99.8 | 81.1 | 98.7 | 229.5 | –
O=C(N/N=C/c1ccc(F)cc1)c1ccncc1 [IPK 000 041 52] | 93.7 | 75.6 | 103.2 | 262.5 | –
O=C(N/N=C/c1ccc(O)cc1)c1ccncc1 [IPK 000 043 07] | 98.6 | 104 | 102.5 | 303.5 | –
O=C(N/N=C/c1cccc(Br)c1)c1ccncc1 [IPK 000 043 09] | 102 | 95.8 | 100.5 | 258.5 | –
O=C(N/N=C/c1cccc(Cl)c1Cl)c1ccncc1 [IPK 000 043 10] | 98.3 | 14.3 | 92.7 | 176.8 | –
Cc1ccc(/C=N/NC(=O)c2ccncc2)cc1 [IPK 000 041 50] | 90.8 | 81.6 | 102.2 | 296.3 | –
O=C(N/N=C/c1ccc([N+](=O)[O-])s1)C1CCN(Cc2ccc(Br)cc2)CC1 [IPK 000 091 49] | 95.1 | 90.5 | 9.3 | 110.5 | –
O=C(N/N=C/c1ccc(O)c([N+](=O)[O-])c1)c1ccncc1 [IPK 000 043 11] | 104 | 104 | 99.5 | 366.0 | –
COc1cc(/C=N/NC(=O)c2ccncc2)ccc1O [IPK 000 042 97] | 103 | 99.7 | 99.2 | 307.8 | –
O=C(Nc1cc(Cl)cc(Cl)c1)c1ccc([N+](=O)[O-])cc1Cl [IPK 000 049 03] | 48.6 | 62.6 | 56.0 | 205.3 | –
Cc1ccc(C(=O)NC2CCCCCC2)cc1[N+](=O)[O-] [IPK 000 047 06] | 69.9 | 57.3 | 17.6 | 290.8 | –
COc1cc(Cl)cc(/C=N/NC(=O)c2ccccc2O)c1O [IPK 000 104 20] | 34.6 | 65.2 | −2.9 | 29.5 | –
Cc1sc(/N=C/c2ccc([N+](=O)[O-])s2)c(C(N)=O)c1C [IPK 000 110 17] | 71.6 | 55.6 | 12.9 | 155.5 | –
c1cc2c(cc1C13CC4CC(CC(C4)C1)C3)c1c3n2CCNC3CCC1 (centres unmarked) [IPK 000 068 87] | 71.4 | 73.1 | −12.0 | 156.8 | –
CCN(CC)c1ccc(/C=N/NC(=O)c2cccs2)c(O)c1 [IPK 000 103 76] | 74.5 | 85.7 | −1.7 | 47.8 | –
NNC(=O)c1ccc(COc2ccc3c(c2)CCC3)o1 [IPK 000 123 30] | 64.1 | 77.2 | 72.5 | 296.8 | –
COc1cc(CN(C)NC(=O)c2ccccn2)ccc1OC(=O)c1cccs1 [IPK 000 058 20] | 44.3 | 98.1 | 66.6 | 344.8 | –
O=C(Nc1ccccc1)Nc1ccc(Br)c(Cl)c1 [IPK 000 170 27] | – | – | – | – | inhibition at 20 µM [1, 7]: 18.9%; inhibition at 20 µM [1, 8]: -72.4%; QIM Confirm CellNb 20 uM (Raw264.7 cells [2]; 20 uM): 46.9
CN(C)c1ccc(/C=C2/c3ccccc3-c3ccc(C(=O)CCCCN4CCCCC4)cc32)cc1 [IPK 000 198 53] | – | – | 10.2 | – | inhibition at 20 µM [1, 7]: 41.9%; inhibition at 20 µM [1, 8]: 58.5%
CSc1nsc(SCc2ccc(C(=O)Nc3ccc(C)cc3C)cc2)n1 [IPK 000 125 08] | – | – | – | – | inhibition at 20 µM [1, 7]: 65.1%; inhibition at 20 µM [1, 8]: 72.8%; QIM Confirm CellNb 0.2 uM (Raw264.7 cells [2]): 388.9
O=C1Nc2ccccc2/C1=N/NC(=O)c1ccncc1 [IPK 000 006 35] | 65.2 | 97.6 | – | 424.3 | inhibition at 0.2 µM [1, 9]: 17.7%; inhibition at 2 µM [1, 10]: 22.8%; inhibition at 0.2 µM [4]: 23.7%; inhibition at 2 µM [4]: 41.9%; inhibition at 20 µM [4]: 43.4%; QIM Confirm CellNb 0.2 uM (Raw264.7 cells [3]; confirmation, 0.2 uM): 262.8; QIM Confirm CellNb 2 uM (Raw264.7 cells [3]; confirmation, 2 uM): 320.9; QIM Confirm CellNb 20 uM (Raw264.7 cells [3]; confirmation, 20 uM): 328.8
Cc1cc(C)cc(NC(=O)c2cccs2)c1 [IPK 000 192 45] | – | – | – | – | inhibition at 20 µM [1, 7]: 65.4%; inhibition at 20 µM [1, 8]: 88.8%; QIM Confirm CellNb 0.2 uM (Raw264.7 cells [2]): 334.0
N#Cc1ccccc1NC(=O)CSc1nc2ccccc2s1 [IPK 000 018 97] | 83.8 | 76.7 | – | 314.0 | inhibition at 0.2 µM [1, 9]: 7.3%; inhibition at 2 µM [1, 10]: 20%; inhibition at 0.2 µM [4]: 40.5%; inhibition at 2 µM [4]: 33.9%; inhibition at 20 µM [4]: 36.1%; QIM Confirm CellNb 0.2 uM (Raw264.7 cells [3]; confirmation, 0.2 uM): 288.5; QIM Confirm CellNb 2 uM (Raw264.7 cells [3]; confirmation, 2 uM): 299.8; QIM Confirm CellNb 20 uM (Raw264.7 cells [3]; confirmation, 20 uM): 553.9
c1ccc(COc2ccc(NCCc3ccncc3)cc2)cc1 [IPK 000 016 00] | 37.9 | -19 | – | 93.0 | inhibition at 0.2 µM [1, 9]: 3.2%; inhibition at 2 µM [1, 10]: 19.4%; inhibition at 0.2 µM [4]: 47.1%; inhibition at 2 µM [4]: 48.6%; inhibition at 20 µM [4]: 68%; QIM Confirm CellNb 0.2 uM (Raw264.7 cells [3]; confirmation, 0.2 uM): 278.8; QIM Confirm CellNb 2 uM (Raw264.7 cells [3]; confirmation, 2 uM): 265.4; QIM Confirm CellNb 20 uM (Raw264.7 cells [3]; confirmation, 20 uM): 300.3
O=C(N/N=C/c1cccc2ccccc12)c1ccncc1 [IPK 000 041 46] | 93.3 | 81.2 | – | 320.0 | inhibition at 0.2 µM [1, 9]: 41.8%; inhibition at 2 µM [1, 10]: 101%; inhibition at 0.2 µM [4]: 41.1%; inhibition at 2 µM [4]: 81.4%; inhibition at 20 µM [4]: 57.9%; QIM Confirm CellNb 0.2 uM (Raw264.7 cells [3]; confirmation, 0.2 uM): 386.9; QIM Confirm CellNb 2 uM (Raw264.7 cells [3]; confirmation, 2 uM): 542.6; QIM Confirm CellNb 20 uM (Raw264.7 cells [3]; confirmation, 20 uM): 347.1
CCOC(=O)c1c(CSc2ccccc2)n(Cc2ccccc2)c2ccc(O)c(CN(C)C)c12 [IPK 000 016 05] | – | – | – | – | inhibition at 20 µM ([1]; read-out: Primary QIM % Inhibition): 67.9%; inhibition at 0.2 µM [1]: -2.2%; inhibition at 2 µM [1]: 0.8%; inhibition at 20 µM ([1]; read-out: QIM Confirm % Inhibition 20 uM): 43.4%; inhibition at 0.2 µM [4]: 36.6%; inhibition at 2 µM [4]: 42.5%; inhibition at 20 µM [4]: 70%; Primary QIM CellNb (Raw264.7 cells [3]): 192.0; QIM Confirm CellNb 0.2 uM (Raw264.7 cells [3]): 206.8; QIM Confirm CellNb 2 uM (Raw264.7 cells [3]): 148.9; QIM Confirm CellNb 20 uM (Raw264.7 cells [3]): 282.0
O=[N+]([O-])c1ccc(/C=N/c2ccccc2O)cc1 [IPK 000 040 14] | 18.1 | -38.6 | – | 95.5 | inhibition at 0.2 µM [1, 9]: 20.4%; inhibition at 2 µM [1, 10]: 15.6%; inhibition at 0.2 µM [4]: 38.7%; inhibition at 2 µM [4]: 46.8%; inhibition at 20 µM [4]: 68.4%; QIM Confirm CellNb 0.2 uM (Raw264.7 cells [3]; confirmation, 0.2 uM): 321.4; QIM Confirm CellNb 2 uM (Raw264.7 cells [3]; confirmation, 2 uM): 262.3; QIM Confirm CellNb 20 uM (Raw264.7 cells [3]; confirmation, 20 uM): 330.0
